From patent US8143237B2, “Anti-cancer drugs, and uses relating for malignant melanoma and other cancers” (Kasina Laila Innova Pharmaceuticals Private Limited, priority 2009, dated 2012) come the findings set out here.

The structures appear in SMILES notation. Values after ≈ are worked out from the molar mass of the structure shown. “Also recorded” adds a separate entry of the source.

One test relates to A549 lung tumor cells. Description: MTT based cell proliferation assay, A549. Particulars: Homo sapiens, read-out: Anti-tumor growth potential (IC50) in A549. Here is the method: (§1) MTT [3-(4,5-dimethylthiazol-2-yl)-2,5-diphenyltetrazolium bromide] incorporation based cell proliferation assay was performed using standard procedure. The cytotoxic efficacies of the various selenopheno triazene compounds (compounds 1 to 16) was evaluated in both human malignant melanoma A375 cells and mouse malignant melanoma B16 F0 cells by MTT cell proliferation assay kit (Roche Applied Sciences, Germany). The assay was carried out according to the instruction provided by the vendor. Briefly, equal numbers of cells was plated in 96-well flat-bottomed plates and were incubated with both DTIC and the test compounds (compounds 1 to 16) at various concentrations for a period of three days. Vehicle control culture wells received only a maximum of 0.5% DMSO. Thereafter, 0.5 mg/ml of MTT reagent was added to each well and the microplate was incubated further for 4 h at 37° C. in presence of 5% CO2. […] After complete solubilization of the formazan crystals, the absorbance was read at 540 nm in a microplate reader (BioRad, USA). […]
(§2) Anti-tumor growth potential of Compound 1 and DTIC were evaluated in various human tumor cells such as A549 lung tumor cells, DU145 prostate tumor cells, HT29 colon cancer cells and MCF-7 (ER^+) breast tumor cells in vitro, by using MTT based cell proliferation assay as described earlier (example 17). […]

Test [1] deals with MCF-7 (ER+) breast tumor cells. As to the kind of experiment: MTT based cell proliferation assay, MCF-7. Particulars: Homo sapiens, MCF7, read-out: Anti-tumor growth potential (IC50) in MCF-7. The procedure:
as §1, §2

The test system of test [2] is Human umbilical vein endothelial cells (HUVEC). As to the kind of experiment: In vitro endothelial capillary tube formation assay. Type of test: cell-based. Particulars: 16 h. The procedure: In vitro capillary formation assay was performed with Human umbilical vein endothelial cells (HUVEC), cultured on 10 mg/ml basement membrane extract (BME-Cultrex®, R&D Systems, USA) bed. The protocol of in vitro endothelial tube formation assay was the same as described earlier with some modifications (Diana G et al., J. Cell Biol. 1995; Volume 130: 207-215.). Briefly, four hundred microliters of Cultrex was coated at 4° C. in each well of 24-well culture plate and allowed to gel at 37° C. for 1 h. HUVECs were plated at a density of 7.5×10^4 cells per well with 400 μl of DMEM supplemented with 10% fetal bovine serum and 4.5 g/l D-glucose. The cells were then treated with either DTIC or Compound 1 at desired concentration as indicated for 16 hours. Vehicle control cultures received only 0.1% DMSO. Pictures were taken under a Nikon Eclipse TS 100 microscope equipped with a Nikon Coolpix camera.

Test [3] has as its system human malignant melanoma A375 cells. Description: MTT based cell proliferation assay, A375 cells. The settings on record: A-375, 72 h, three days incubation, read-out: Cell proliferation inhibition in A375 cells, IC50. Here is the method:
(§3) The cytotoxic efficacies of the various selenopheno triazene compounds (compounds 1 to 16) was evaluated in both human malignant melanoma A375 cells and mouse malignant melanoma B16 F0 cells by MTT cell proliferation assay kit (Roche Applied Sciences, Germany). The assay was carried out according to the instruction provided by the vendor. Briefly, equal numbers of cells was plated in 96-well flat-bottomed plates and were incubated with both DTIC and the test compounds (compounds 1 to 16) at various concentrations for a period of three days. […] Finally, the cells were solubilized by adding solubilizing solution and allowed to incubate at 37° C. overnight. After complete solubilization of the formazan crystals, the absorbance was read at 540 nm in a microplate reader (BioRad, USA).

In test [4] the test system is mouse malignant melanoma B16 F0 cells. As to the kind of experiment: MTT based cell proliferation assay, B16 F0 cells. The settings on record: for IC50: Mus musculus, B16F0, 72 h, MTT, three days incubation, read-out: Cell proliferation inhibition in B16F0 cells, IC50. The procedure: as §3
Test [5] concerns B16F0 mouse melanoma cells. As to the kind of experiment: Matrigel cell invasion assay. Type of test: cell-based. Particulars: 24 h. The procedure: The inhibitory effects of DTIC and compound 1 on invasive ability of B16F0 were tested in cell invasion assay performed with by using Matrigel (BME-Cultrex®, R&D Systems, USA) coated cell culture inserts (Becton Dickinson, USA) with 8 μm-pore membrane. Equal number (fifty thousands) of B16F0 cells were applied in each insert well and allowed to attach for 2 h at 37° C. and in presence of 5% CO2. Thereafter, the cellular invasion through the matrigel layer was performed in presence or absence of test compounds. Either 100 μg/ml of DTIC or 20 μg/ml of Compound 1 was applied in the lower chamber of the invasion assembly. 0.1% DMSO was applied in the vehicle control culture chambers. After 24 h treatment, the matrigel layer containing cells was removed with cotton plug and the invaded cells on the other side of the membrane were fixed with methanol for 5 min and then stained with Giemsa. The stained membrane was mounted on a glass slide and number invaded cells were counted in 20 random fields (20× objective) under a light microscope (Nikon Eclipse TS 100).

In test [6] the test system is DU145 prostate tumor cells. Description: MTT based cell proliferation assay, DU145. Particulars: Homo sapiens, DU-145, read-out: Anti-tumor growth potential (IC50) in DU145. The procedure: as §1, §2
The test system of the next test is B16F0 cells. Description: B16 F0 mouse melanoma cell colony formation assay. Format: cell-based. The settings on record: 8 days. Here is the method:
Inhibitory efficacy in clone formation of the Compound 1 and DTIC was tested by following the procedure described earlier with some modifications. Briefly, B 16F0 cells were harvested and seeded into 6-well plates (100 cells/ml). The cells were allowed to grow for 4 days and thereafter, the cells were incubated with DMEM containing either 0.1% DMS 0 or 100 μg/ml DTIC or different concentrations (1, 5, 10 or 20 μg/ml) of Compound 1 for further 8 days. Fresh medium containing test agents was replaced at every 24 h. Finally, the wells were washed three times with PBS and fixed in methanol for 15 min. The cells were stained with Giemsa stain and observed under microscope. The image of the stained wells were captured digitally (Kodak Image Station 4000 mM, Carestream Health Inc., New Haven, Conn.) and number of colonies were counted and analyzed by using NIH Image J software.

On to `Cc1[se]c(C(N)=O)cc1/N=N/N(C)C` [Compound 1, 4-[(dimethylamino)diazenyl]-5-methylselenophene-2-carboxamide], for which the IC50 in the test with A549 lung tumor cells came out at 7.68 µg/mL (≈ 29.6 µM); in test [1], 7.03 µg/mL (≈ 27.1 µM); in test [3], 9.81 µg/mL (≈ 37.9 µM); in test [4], 46.6 µg/mL (≈ 180 µM); in test [6] it was 8.97 µg/mL (≈ 34.6 µM). Further, the “Endothelial capillary-like tube formation” value in test [2] (5 and 10 μg/ml) is “inhibition of capillary formation in a dose dependent manner; also recorded: exhibited anti-angiogenic properties”. Besides, in test [4] (MTT IC50 comparison), the “Potency of inhibition relative to Dacarbazine, mouse melanoma B16 cells” value is listed as 5 times. In addition, the “B16 F0 melanoma tumor cell invasion vs vehicle control” value in test [5] (20 μg/ml, p=0.0017) is “significantly reduced; also recorded: significantly inhibited the invasion”. For the same compound, the “Reduction in number of B16 colonies” value in the test on B16F0 cells (at 1 μg/ml) is given as 11%; in the test on B16F0 cells (at 5 μg/ml) it was 35%; in the test with B16F0 cells (at 10 μg/ml) it was 54%; in the test with B16F0 cells (at 20 μg/ml), 94%.

The inhibition is how much of the control response was suppressed. For `CN(C)N=Nc1[nH]cnc1C(N)=O` [DTIC, 5-(3,3-dimethyl-1-trizeno)-imidazole-4-carboxamide, reference compound], the IC50 was 95 µg/mL (≈ 521 µM) with A549 lung tumor cells; 85.1 µg/mL (≈ 467 µM) in test [1]; 70.1 µg/mL (≈ 385 µM) in test [3]; 325 µg/mL (≈ 1790 µM) in test [4]; 58.5 µg/mL (≈ 321 µM) in test [6]. For the same compound, the “Endothelial capillary-like tube formation” value in test [2] (100 μg/ml) was “promoted capillary formation; also recorded: could not inhibit the endothelial capillary formation”. Further, the “B16 F0 melanoma tumor cell invasion vs vehicle control” value in test [5] (100 μg/ml) is “could not significantly inhibit; also recorded: failed to inhibit the tumor cell invasion”. Further, the inhibition at 100 µg/mL in the test with B16F0 cells (Mus musculus, B16F0, 192 h, at 100 μg/ml, read-out: Inhibition of B16 colony formation (number of colonies)) came to 35.8%.
